This assay relates to P. aeruginosa IAM1095. The experiment in a line: in vitro antimicrobial activity, two-fold agar-plate dilution method (MIC). In kind it is cell-based. Conditions: Pseudomonas aeruginosa, heart infusion agar (HI-agar), 10^6 viable cells per ml, 37° C., 20 hours, read-out: minimal inhibitory concentration (MIC). How it is done:
in vitro Antimicrobial Activity was determined by the two-fold agar-plate dilution method as described below.
One loopful of an overnight culture of a test strain in Trypticase-soy broth (10^6 viable cells per ml) was streaked on heart infusion agar (HI-agar) containing graded concentrations of the test compound, and the minimal inhibitory concentration (MIC) was expressed in terms of μg/ml after incubation at 37° C. for 20 hours.

Experimental findings from patent US5608056A, “Substituted 3-pyrrolidinylthio-carbapenems as antimicrobial agents” (Fujisawa Pharmaceutical Co., Ltd., priority 1992, dated 1997) are described below.

On to `C[C@@H](O)[C@H]1C(=O)N2C(C(=O)O)=C(S[C@@H]3CN[C@H](CC[n+]4ccn(C)c4)C3)[C@H](C)[C@H]12` [Example 4-4), (4R,5S,6S)-6-[(1R)-1-hydroxyethyl]-4-methyl-3-[(2R,4S)-2-{2-(3-methyl-1-imidazolio)ethyl}pyrrolidin-4-yl]thio-7-oxo-1-azabicyclo[3.2.0]hept-2-ene-2-carboxylic acid chloride], for which the MIC is 0.78 µg/mL.
